Patent US10703748B2, “Diazanaphthalen-3-yl carboxamides and preparation and use thereof” (Samumed, LLC, priority 2017, dated 2020)

Experiments:
[1] = system: secreted cytokines TNFα, IL-6 and KC-GRO; experiment: Secreted cytokines in Lipopolysaccharide-stimulated BV-2 cells (Table 9 does not say which cytokine); assay type: cell-based, mouse; settings: Mus musculus, BV-2, 5 h; read-out: EC50
[2] = target: DYRK1A kinase (Homo sapiens, UniProt Q13627); experiment: DYRK1A kinase activity (Ser/Thr 18 peptide Z-lyte FRET assay); assay type: biochemical; settings: recombinant DYRK1A, 30 μM ATP, one hour at room temperature;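 further: kinase activity read as coumarin/fluorescein emission ratio after development step, with unphosphorylated and phosphorylated peptide forms setting 0% and 100% controls, values from dose-response curves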
[3] = system: SW480 colon carcinoma cells; experiment: Cell viability assay (CellTiter-Glo); settings: Homo sapiens; for EC50: SW480, 96 h; for inhibition at 10 µM: SW480, read-out: percent inhibition at 10 μM
[4] = system: Wnt-responsive Sp5-Luc reporter in SW480 colon carcinoma cells; experiment: Screening assay for Wnt activity (Sp5-Luc reporter gene assay); settings: Homo sapiens; for EC50: SW480; for inhibition at 10 µM: SW480, read-out: percent inhibition at 10 μM
[5] = system: α-smooth muscle actin (aSMA) positive LL29 cells; experiment: Inhibition of the fibrotic process: αSMA staining in TGF-β1 treated LL29 fibroblasts from IPF patients; settings: Homo sapiens, Fibroblast; for EC50: 96 h; for inhibition at 10 µM: read-out: percentage in parentheses after EC50 >10
[6] = target: GSK3β kinase (Homo sapiens, UniProt P49841); experiment: GSK3β kinase activity (Ser/Thr 09 peptide Z-lyte FRET assay); assay type: biochemical; settings: recombinant kinase, 46 μM ATP, one hour at room temperature; read-out: EC50
Chain of GSK3β kinase (P49841 whole entry): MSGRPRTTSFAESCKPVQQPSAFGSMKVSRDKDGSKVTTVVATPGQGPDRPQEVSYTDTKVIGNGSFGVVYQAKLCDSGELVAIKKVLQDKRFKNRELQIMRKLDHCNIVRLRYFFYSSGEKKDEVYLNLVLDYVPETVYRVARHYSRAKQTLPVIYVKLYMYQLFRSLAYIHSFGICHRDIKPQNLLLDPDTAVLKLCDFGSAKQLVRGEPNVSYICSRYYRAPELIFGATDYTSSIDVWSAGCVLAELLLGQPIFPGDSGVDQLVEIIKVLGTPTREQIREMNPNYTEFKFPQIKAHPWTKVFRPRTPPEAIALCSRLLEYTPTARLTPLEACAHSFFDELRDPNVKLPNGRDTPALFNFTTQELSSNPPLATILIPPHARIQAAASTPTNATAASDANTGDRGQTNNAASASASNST

[7] = system: IL-6; experiment: IL-6 inhibition in LPS-stimulated human peripheral blood mononuclear cells (HTRF); settings: Homo sapiens, PBMC; for EC50: 22 h; for inhibition at 10 µM: read-out: percentage in parentheses after EC50 >10

EC50 [1] [µM] | EC50 [2] [µM] | EC50 [3] [µM] | EC50 [4] [µM] | EC50 [6] [µM] | EC50 [7] [µM] | Compound | EC50 [5] [µM] | inhibition at 10 µM [3] [%] | inhibition at 10 µM [4] [%] | inhibition at 10 µM [5] [%] | inhibition at 10 µM [7] [%]
0.104 | 0.002 | 0.272 | 0.289 | 4.68 | 1.59 | Nc1cncc(-c2ccc3cnc(NC(=O)c4ccc(OC5CCNCC5)cc4)cc3n2)c1 [Compound 804, N-(2-(5-Aminopyridin-3-yl)-1,6-naphthyridin-7-yl)-4-(piperidin-4-yloxy)benzamide] | 0.482 | – | – | – | –
0.265 | 0.007 | 0.86 | 0.484 | > 10 | 4.2 | CN1CCN(c2cc(C(=O)Nc3cc4nc(-c5ccc(N)nc5)ccc4cn3)ccn2)CC1 [Compound 807, N-(2-(6-Aminopyridin-3-yl)-1,6-naphthyridin-7-yl)-2-(4-methylpiperazin-1-yl)isonicotinamide] | 1.41 | – | – | – | –
0.306 | 0.025 | > 10 | > 10 | 0.36 | 3.42 | O=C(Nc1cc2nc(-c3cncc(NCC4(F)CNC4)n3)ccc2cn1)C1CC1 [Compound 871, N-(2-(6-(((3-Fluoroazetidin-3-yl)methyl)amino)pyrazin-2-yl)-1,6-naphthyridin-7-yl)cyclopropanecarboxamide] | 8.05 | 33.5 | 24.7 | – | –
2.7 | 0.016 | > 10 | > 10 | 9.92 | > 10 | O=C(Nc1cc2nc(-c3cncc(NC4CCNCC4)n3)ccc2cn1)C1CCOCC1 [Compound 877, N-(2-(6-(Piperidin-4-ylamino)pyrazin-2-yl)-1,6-naphthyridin-7-yl)tetrahydro-2H-pyran-4-carboxamide] | > 10 | 11.7 | 0 | 23.6 | 6.8
0.266 | 0.005 | 0.109 | 0.121 | > 10 | 1.69 | CN1CCC(n2cc(C(=O)Nc3cc4nc(-c5cncc6[nH]ccc56)ccc4cn3)cn2)CC1 [Compound 896, N-(2-(1H-Pyrrolo[2,3-c]pyridin-4-yl)-1,6-naphthyridin-7-yl)-1-(1-methylpiperidin-4-yl)-1H-pyrazole-4-carboxamide] | 0.335 | – | – | – | –
0.78 | 0.008 | 8.47 | 0.573 | 0.661 | 3.71 | CN1CCN(c2cccc(C(=O)Nc3ncc4ccc(-c5cnn(C)c5)cc4n3)c2)CC1 [Compound 1047, N-(7-(1-Methyl-1H-pyrazol-4-yl)quinazolin-2-yl)-3-(4-methylpiperazin-1-yl) benzamide] | 1.93 | – | – | – | –
1.2 | 0.008 | 0.719 | 0.468 | 3.65 | 3.93 | CN1CCN(c2cc(C(=O)Nc3ncc4ccc(-c5cnn(C)c5)cc4n3)ccn2)CC1 [Compound 1054, N-(7-(1-Methyl-1H-pyrazol-4-yl)quinazolin-2-yl)-2-(4-methylpiperazin-1-yl) isonicotinamide] | 2.34 | – | – | – | –
0.286 | 0.009 | 9.43 | 2.15 | 3.13 | > 10 | CN1CCN(c2ccc(C(=O)Nc3ncc4ccc(-c5cnn(C)c5)cc4n3)cn2)CC1 [Compound 1058, N-(7-(1-Methyl-1H-pyrazol-4-yl)quinazolin-2-yl)-6-(4-methylpiperazin-1-yl)nicotinamide] | > 10 | – | – | 8.8 | 3
0.28 | 0.027 | 6.96 | 3.57 | > 10 | > 10 | Cn1cc(-c2ccc3cnc(NC(=O)c4ccnc(OC5CCNCC5)c4)nc3c2)cn1 [Compound 1060, N-(7-(1-Methyl-1H-pyrazol-4-yl)quinazolin-2-yl)-2-(piperidin-4-yloxy)isonicotinamide] | > 10 | – | – | 28.6 | 4.9
1.8 | 0.01 | 3.47 | 1.53 | > 10 | > 10 | CN(C)CCNc1cc(C(=O)Nc2ncc3ccc(-c4cnn(C)c4)cc3n2)ccn1 [Compound 1071, 2-((2-(Dimethylamino)ethyl)amino)-N-(7-(1-methyl-1H-pyrazol-4-yl)quinazolin-2-yl)isonicotinamide] | 6.84 | – | – | – | 11.8
0.203 | 0.016 | 3.4 | 1.08 | 4.14 | 9.2 | CN(C)Cc1ccc(C(=O)Nc2ncc3ccc(-c4cnn(C)c4)cc3n2)cc1 [Compound 1077, 4-((Dimethylamino)methyl)-N-(7-(1-methyl-1H-pyrazol-4-yl)quinazolin-2-yl)benzamide] | 3.92 | – | – | – | –
1.4 | 0.019 | 3.39 | 1 | 9.74 | > 10 | CN1CCN(Cc2cccc(C(=O)Nc3ncc4ccc(-c5cnn(C)c5)cc4n3)c2)CC1 [Compound 1079, N-(7-(1-Methyl-1H-pyrazol-4-yl)quinazolin-2-yl)-3-((4-methylpiperazin-1-yl)methyl)benzamide] | > 10 | – | – | 14.3 | 12.7
0.349 | 0.018 | 9.48 | 1.92 | > 10 | > 10 | CN1CCc2ccc(C(=O)Nc3ncc4ccc(-c5cnn(C)c5)cc4n3)cc2C1 [Compound 1109, 2-Methyl-N-(7-(1-methyl-1H-pyrazol-4-yl)quinazolin-2-yl)-1,2,3,4-tetrahydroisoquinoline-7-carboxamide] | > 10 | – | – | 16.4 | 6.3
0.96 | 0.015 | 3.03 | 0.791 | > 10 | > 10 | Cn1cc(-c2ccc3cnc(NC(=O)c4ccc5ccoc5c4)nc3c2)cn1 [Compound 1116, N-(7-(1-Methyl-1H-pyrazol-4-yl)quinazolin-2-yl)benzofuran-6-carboxamide] | 2.71 | – | – | – | 3.8
1 | 0.013 | 6.12 | 1.97 | 4.8 | > 10 | Cn1cc(-c2ccc3cnc(NC(=O)c4ccc5nccnc5c4)nc3c2)cn1 [Compound 1123, N-(7-(1-Methyl-1H-pyrazol-4-yl)quinazolin-2-yl)quinoxaline-6-carboxamide] | > 10 | – | – | 22 | 6.5
0.554 | 0.013 | 2.91 | 0.323 | 2.53 | 3.2 | CN1CCC(n2cc(C(=O)Nc3ncc4ccc(-c5cnn(C)c5)cc4n3)cn2)CC1 [Compound 1136, N-(7-(1-Methyl-1H-pyrazol-4-yl)quinazolin-2-yl)-1-(1-methylpiperidin-4-yl)-1H-pyrazole-4-carboxamide] | 1.46 | – | – | – | –
0.177 | 0.008 | 0.717 | 0.414 | 4.06 | 3.13 | CC(C)OC(=O)N1CCC(n2cc(C(=O)Nc3ncc4ccc(-c5cnn(C)c5)cc4n3)cn2)CC1 [Compound 1141, Isopropyl 4-(4-((7-(1-methyl-1H-pyrazol-4-yl)quinazolin-2-yl)carbamoyl)-1H-pyrazol-1-yl)piperidine-1-carboxylate] | 1.39 | – | – | – | –
1.1 | 0.004 | 0.695 | 0.478 | > 10 | 3.61 | CN1CCN(c2cc(C(=O)Nc3ncc4ccc(-c5cnn(C)c5N)cc4n3)ccn2)CC1 [Compound 1210, N-(7-(5-Amino-1-methyl-1H-pyrazol-4-yl)quinazolin-2-yl)-2-(4-methylpiperazin-1-yl)isonicotinamide] | 1.4 | – | – | – | –
0.877 | 0.019 | 5.3 | 1.82 | 5.6 | > 10 | Cn1ncc(-c2ccc3cnc(NC(=O)c4ccnc(N5CCOCC5)c4)nc3c2)c1CN1CCOCC1 [Compound 1220, N-(7-(1-Methyl-5-(morpholinomethyl)-1H-pyrazol-4-yl)quinazolin-2-yl)-2-morpholinoisonicotinamide] | > 10 | – | – | 5.5 | 0
1 | 0.008 | 1.34 | 0.742 | 0.453 | > 10 | CN(C)C1CCN(c2cc(C(=O)Nc3ncc4ccc(-c5cn(C)nn5)cc4n3)ccn2)CC1 [Compound 1282, 2-(4-(Dimethylamino)piperidin-1-yl)-N-(7-(1-methyl-1H-1,2,3-triazol-4-yl)quinazolin-2-yl)isonicotinamide] | 2.54 | – | – | – | 42.4
